Assay results published in patent publication US7507729B2, “Substituted imidazo-[1,5-a][1,2,4]triazolo[1,5-d][1,4] benzodiazepine derivatives” (priority 2005, dated 2009).
Counter-ions that a name gives are not always drawn. Like-named read-outs stand apart in the source and are kept apart here.

Columns and labels:
[1] = molecular target: T1, GABA A receptor α5β3γ2 (hα5) (Homo sapiens, UniProt P18507+P31644); experiment: [3H]flumazenil competition binding, membranes of HEK293 cells expressing human GABA A α5β3γ2
T1 construct: expressed in transfected cells; host or cells: HEK293, transiently transfected; membranes
Protocol: (§1) The affinity of compounds at GABA A receptor subtypes was measured by competition for [^3H]flumazenil (85 Ci/mmol; Roche) binding to HEK293 cells expressing rat (stably transfected) or human (transiently transfected) receptors of composition α1β3γ2, α2β3γ2, α3β3γ2 and α5β3γ2.
(§2) Cell pellets were suspended in Krebs-tris buffer (4.8 mM KCl, 1.2 mM CaCl2, 1.2 mM MgCl2, 120 mM NaCl, 15 mM Tris; pH 7.5; binding assay buffer), homogenized by polytron for ca. 20 sec on ice and centrifuged for 60 min at 4° C. (50000 g; Sorvall, rotor: SM24=20000 rpm). The cell pellets were resuspended in Krebs-tris buffer and homogenized by polytron for ca. 15 sec on ice. Protein was measured (Bradford method, Bio-Rad) and aliquots of 1 mL were prepared and stored at −80° C.
(§3) Radioligand binding assays were carried out in a volume of 200 μL (96-well plates) which contained 100 μL of cell membranes, [^3H]flumazenil at a concentration of 1 nM for α1, α2, α3 subunits and 0.5 nM for α5 subunits and the test compound in the range of 10^−10-3×10^−6 M.
(§4) Nonspecific binding was defined by 10^−5 M diazepam and typically represented less than 5% of the total binding. Assays were incubated to equilibrium for 1 hour at 4° C. and harvested onto GF/C uni-filters (Packard) by filtration using a Packard harvester and washing with ice-cold wash buffer (50 mM Tris; pH 7.5). After drying, filter-retained radioactivity was detected by liquid scintillation counting. Ki values were calculated using Excel-Fit (Microsoft) and are the means of two determinations.

[2] = molecular target: T2, GABA A receptor α1β3γ2 (hα1) (Homo sapiens, UniProt P14867+P18507); experiment: [3H]flumazenil competition binding, membranes of HEK293 cells expressing human GABA A α1β3γ2
T2 construct: expressed in transfected cells; host or cells: HEK293, transiently transfected; membranes
Protocol: as §1, §2, §3, §4

[3] = [3H]flumazenil 0.5 nM, 1 hour at 4° C., means of two determinations, read-out: Ki[nM] hα5
[4] = [3H]flumazenil 1 nM, 1 hour at 4° C., means of two determinations, read-out: Ki[nM] hα1

Structure (SMILES)	Ki [1, 3]	Ki [2]	Ki [1]	Ki [2, 4]
CCOC(=O)c1ncn2c1Cn1nc(COC)nc1-c1cc(Cl)ccc1-2 [Example 4, Ethyl 3-chloro-6-methoxymethyl-9H-imidazo[1,5-a][1,2,4]triazolo[1,5-d][1,4]benzodiazepine-10-carboxylate]	0.3 nM	8.5 nM		
Cc1ncn2c1Cn1nc(Cc3ccncc3)nc1-c1cc(Br)ccc1-2 [Example 122, 3-Bromo-10-methyl-6-(pyridine-4-ylmethyl)-9H-imidazo[1,5-a][1,2,4]triazolo[1,5-d][1,4]benzodiazepine]			0.5 nM	150 nM
O=C1CCCN1Cc1nc2n(n1)Cc1c(Cl)ncn1-c1ccc(Br)cc1-2 [Example 49, 3-Bromo-10-chloro-6-(2-oxo-pyrrolidin-1-ylmethyl)-9H-imidazo[1,5-a][1,2,4]triazolo[1,5-d][1,4]benzodiazepine]	0.9 nM	114 nM		
O=C(Cc1nc2n(n1)Cc1c(Cl)ncn1-c1ccc(Br)cc1-2)NC1CCCC1 [Example 61, 3-Bromo-10-chloro-6-cyclopentylcarbamoylmethyl-9H-imidazo[1,5-a][1,2,4]triazolo[1,5-d][1,4]benzodiazepine]	0.6 nM	91.7 nM		
Cc1cc(Cc2nc3n(n2)Cc2c(C)ncn2-c2ccc(Br)cc2-3)on1 [Example 123, 3-Bromo-10-methyl-6-(3-methyl-isoxazol-5-ylmethyl)-9H-imidazo[1,5-a][1,2,4]triazolo[1,5-d][1,4]benzodiazepine]			0.6 nM	188 nM
CN1CCN(Cc2nc3n(n2)Cc2c(Cl)ncn2-c2ccc(Br)cc2-3)C1=O [Example 300, 3-Bromo-10-chloro-6-(3-methyl-2-oxo-imidazolidin-1-ylmethyl)-9H-imidazo[1,5-a][1,2,4]triazolo[1,5-d][1,4]benzodiazepine]	0.7 nM	62.1 nM		
O=C1CCC(=O)N1Cc1nc2n(n1)Cc1c(Cl)ncn1-c1ccc(Br)cc1-2 [Example 310, 3-Bromo-10-chloro-6-(2,5-dioxo-pyrrolidin-1-ylmethyl)-9H-imidazo[1,5-a][1,2,4]triazolo[1,5-d][1,4]benzodiazepine]	0.7 nM			69.7 nM
Cc1ccc(Cc2nc3n(n2)Cc2c(C)ncn2-c2ccc(Cl)cc2-3)cn1 [Example 185, 3-Chloro-10-methyl-6-(6-methyl-pyridin-3-ylmethyl)-9H-imidazo[1,5-a][1,2,4]triazolo[1,5-d][1,4]benzodiazepine]			0.9 nM	248 nM
Cc1ccc2c(c1)-c1nc(Cc3cc(C)no3)nn1Cc1c(C)ncn1-2 [Example 236, 3,10-Dimethyl-6-(3-methyl-isoxazol-5-ylmethyl)-9H-imidazo[1,5-a][1,2,4]triazolo[1,5-d][1,4]benzodiazepine]			0.8 nM	496 nM
Clc1ccc2c(c1)-c1nc(Cn3cccn3)nn1Cc1c(Cl)ncn1-2 [Example 13, 3,10-Dichloro-6-pyrazol-1-ylmethyl-9H-imidazo[1,5-a][1,2,4]triazolo[1,5-d][1,4]benzodiazepine]	0.9 nM	30.7 nM		
C[C@H]1CN(Cc2nc3n(n2)Cc2c(Cl)ncn2-c2ccc(Br)cc2-3)C(=O)O1 [Example 314, 3-Bromo-10-chloro-6-((5S)-5-methyl-2-oxo-oxazolidin-3-ylmethyl)-9H-imidazo[1,5-a][1,2,4]triazolo[1,5-d][1,4]benzodiazepine]	0.7 nM	32.3 nM		
Cc1ncn2c1Cn1nc(Cc3cccnc3)nc1-c1ccccc1-2 [Example 265, 10-Methyl-6-(pyridine-3-ylmethyl)-9H-imidazo[1,5-a][1,2,4]triazolo[1,5-d][1,4]benzodiazepine]	0.62 nM	39.3 nM		
Cc1ncn2c1Cn1nc(Cn3ccnc3)nc1-c1ccccc1-2 [Example 275, 6-(Imidazol-1-ylmethyl)-10-methyl-9H-imidazo[1,5-a][1,2,4]triazolo[1,5-d][1,4]benzodiazepine hydrochloride (1:1)]	0.6 nM	33.6 nM		
O=C1NCCN1Cc1nc2n(n1)Cc1c(Cl)ncn1-c1ccc(Br)cc1-2 [Example 301, 3-Bromo-10-chloro-6-(2-oxo-imidazolidin-1-ylmethyl)-9H-imidazo[1,5-a][1,2,4]triazolo[1,5-d][1,4]benzodiazepine]	0.7 nM			50.5 nM
O=C1CSC(=O)N1Cc1nc2n(n1)Cc1c(Cl)ncn1-c1ccc(Br)cc1-2 [Example 309, 3-Bromo-10-chloro-6-(2,4-dioxo-thiazolidin-3-ylmethyl)-9H-imidazo[1,5-a][1,2,4]triazolo[1,5-d][1,4]benzodiazepine]	0.5 nM	55.2 nM		
